Data as given in patent publication US6660910B1, “Selection marker” (Syngenta Mogen B.V., priority 1997, dated 2003).

How the values were obtained:
Type in all cases: cell-based
[1] = tested on: callus derived from scutellum of mature embryos of Oryza sativa cv. Taipei 309; experiment: Rice callus transformation (Agrobacterium) with cyanamide selection; settings: for Calli able to regenerate: 15 mg/l cyanamide
Description: Described below is the method used for transformation of callus derived from scutellum of mature embryos of Oryza sativa cv. Taipei 309 using Agrobacterium tumefaciens strain LBA1119-pMOG1295 (harboring the cah-gene) and strain LBA1119-pMOG1253 (control). Sterile dehusked rice seeds were germinated on plates containing Callus Induction Medium (CIM) in the dark at 28° C. (The contents of various media can be found in Table 5). After 3 weeks embryogenic callus derived from the scutellum is isolated and subcultured on the same medium under the same conditions. After 2-3 weeks embryogenic calli were cut in segments of approximately 2-3 mm and cultured plates containing CIM for 4 days. The Agrobacterium strains used in this study harbored a rifampicin selection marker in a C 58 chromosomal background. The construction of the helper strain EHA105 is described by Hood et al. (1993). Agrobacteria were grown for 4 days on plates containing AB medium with antibiotics (rifampicin 20 mg/l, kanamycin 100 mg/l ). Agrobacteria were collected in LIM and the OD600 was adjusted till 1.0-1.5. This suspension was used for cocultivation. Calli were incubated for 10 minutes with the Agrobacterium suspension and dried on sterile filter paper to remove excess of bacteria. Calli were cultured for 48 h on Coculture Medium (COM) plates at 25° C. in the dark. 50 pMOG1295 calli and 20 pMOG1253 calli were cultured per concentration of cyanamid. The following concentrations of cyanamide were used: 0, 15, 30, 60, 100, 150, 200, 300 and 500 mg/l. Hygromycin was applied in a concentration of 50 mg/l. Calli were incubated on First Selection Medium (FSM) plates containing several concentrations of cyanamide or hygromycin at 28° C. in the dark. After 3 weeks the calli were transferred to Embryo Induction Medium I (EIM I) containing the same concentration of cyanamide or hygromycin . After another 3 weeks the calli were subcultured on Embryo Induction Medium II (EIM II) containing the same concentration of cyanamide or an increased concentration of hygromycin (75 mg/l). Calli were transferred to Shoot Induction Medium (SIM) containing the same concentration of cyanamide as during FSM, EIM I, EIM II and were cultured under 12 hours light period (2600 LUX) and 12 hours dark at 28 ° C. Approximately 3 weeks after transferring calli to SIM, shoots were regenerating and excised and placed in jars containing Pre-Greenhouse Medium (PGM). […] At 15 mg/l cyanamide the regeneration frequency of callus from both constructs was the same (pMOG1253 7 out of 16 calli were able to regenerate, pMOG1295 17 out of 44).

[2] = tested on: regenerable embryogenic suspension of Grand nain; experiment: Kill curves in banana (Musa); settings: for % Live cells as assessed by FDA: 21 days; for % Callus Growth: approximate visual estimate
Description: To test the potential of cyanamide as a selection agent for transformation in banana two kill curves were set up with a regenerable embryogenic suspension of Grand nain 6 day old embryogenic suspension (Ed6b) cultures, subbed routinely in M2 2,4D liquid, containing 4.32 g/l MS salts, 45 g/l sucrose, standard 1×concn. MS vitamins, 100mg/l glutamine, 100 mg/l myo-inositol, 100 mg/l biotin, 100mg/l malt extract at pH 5.3 and added after autoclaving 1.2 mg/l 2,4-D and 0.8 mg/l picloram.
Cultures were sieved (>250μ, <710μ) and aliquots of approx 50 μl sieved culture in 300μl volume of liquid were pipetted onto two kill curve media as detailed below (3 reps per plate). Culture growth and survival were monitored over the following 3 weeks and cell survival assessed after 21 days via FDA staining.
Kill Curve Medium A : M2/MS/1.0 2,4-D (as M2/MS/2,4-D except only 1.0 mg/l 2,4-D, no picloram and +2.25 g/l gelrite): this medium promotes the rapid division and growth of embryogenic callus, but not embryos. Kill Curve Medium B : M2/SH/0.5Pic, 0.5 2,4-D (as M2/MS/2,4-D except only 0.5 mg/l 2,4-D and 0.5 mg/l picloram, SH salts (4.32 g/1) instead of MS, +2.25 g/l gelrite): This medium promotes the early development of embryos which can be matured and germinated by transfer to alternative media.
Cyanamide was added to both media types, after autoclaving, to concentrations of 0,20,30,50,75,100,150 mg/l.

[3] = tested on: root segments of Arabidopsis thaliana cv. C24; experiment: Arabidopsis root transformation with selection on cyanamide or kanamycin; settings: pMOG 1156; treatment kanamycin 50 mg/litre; column headed same conc. as treatment in rooting medium
[4] = pMOG1295, 30 mg/l cyanamide, 50 calli cultured
[5] = Medium M2/MS/2,4-D, cyanamide 20 mg/l
[6] = Medium M2/MS/2,4-D, cyanamide 30 mg/l
[7] = Medium M2/MS/2,4-D, cyanamide 50 mg/l
[8] = Medium M2/MS/2,4-D, cyanamide 75 mg/l
[9] = Medium M2/MS/2,4-D, cyanamide 100 mg/l
[10] = Medium M2/MS/2,4-D, cyanamide 150 mg/l
[11] = Medium M2/SH/0.5Pic +0.5 2,4-D, cyanamide 20 mg/l
[12] = Medium M2/SH/0.5Pic +0.5 2,4-D, cyanamide 30 mg/l
[13] = Medium M2/SH/0.5Pic +0.5 2,4-D, cyanamide 50 mg/l
[14] = Medium M2/SH/0.5Pic +0.5 2,4-D, cyanamide 75 mg/l
[15] = Medium M2/SH/0.5Pic +0.5 2,4-D, cyanamide 150 mg/l

## N#CN [Cyanamide]
[1]; cyanamide 100 mg/l or higher, pMOG1295 and pMOG1253 calli
  Callus formation: No calli were formed
[1]; pMOG1253 (control)
  Calli able to regenerate: 7 out of 16
[1]; pMOG1295 (cah-gene)
  Calli able to regenerate: 17 out of 44
[1]; [4]
  Calli able to be regenerated: 6
  Calli showing green callus development: 11
[2]
  Concentration up to which there is no significant visual browning of cultures and release of phenolics: > 75 mg/L
[2]; 20 mg/l, read-out: Inhibition of the growth of embryogenic callus
  inhibition at 20 µg/mL: 40 to 50%
[2]; [5]
  % Live cells as assessed by FDA: 60%
  % Callus Growth: +30%
[2]; [6]
  % Live cells as assessed by FDA: 50%
  % Callus Growth: +20%
[2]; [7]
  % Live cells as assessed by FDA: 20%
  % Callus Growth: 0%
[2]; [8]
  % Live cells as assessed by FDA: 10%
  % Callus Growth: 0%
[2]; [9]
  % Live cells as assessed by FDA: 10%
  % Callus Growth: 0%
[2]; [10]
  % Live cells as assessed by FDA: 0%
  % Callus Growth: 0%
[2]; [11]
  Embryos Formed (average): 0
  % Live cells as assessed by FDA: 50%
[2]; [12]
  Embryos Formed (average): 0
  % Live cells as assessed by FDA: 40%
[2]; [13]
  Embryos Formed (average): 0
  % Live cells as assessed by FDA: 30%
[2]; [14]
  Embryos Formed (average): 0
  % Live cells as assessed by FDA: 20%
[2]; Medium M2/SH/0.5Pic +0.5 2,4-D, cyanamide 100 mg/l
  Embryos Formed (average): 0
[2]; [15]
  Embryos Formed (average): 0
  % Live cells as assessed by FDA: 0%
[2]; lowest concentration tested (20 mg/l)
  Embryogenesis: totally inhibited

## NC[C@H]1O[C@H](O[C@H]2[C@H](O)[C@@H](O[C@H]3O[C@H](CO)[C@@H](O)[C@H](N)[C@H]3O)[C@H](N)C[C@@H]2N)[C@H](O)[C@@H](O)[C@@H]1O [Kanamycin]
[3]
  Percentage of GUS expressing plants (% of plants staining blue): 100%
